Here are results for twelve compounds from patent US12433872B2, “Treatment of Acanthamoeba or Balamuthia trophozoites and/or cysts” (GEORGIA STATE UNIVERSITY RESEARCH FOUNDATION, INC., priority 2018, dated 2025).

Where two headings read alike, the source gives them in different places.

Holding throughout (type): cell-based
The test system of assay [1] is Acanthamoeba culbertsoni (ATCC30171) cysts. Nature of the assay: Encystation drug susceptibility / excystation viability assay, 30 day recovery, A. culbertsoni cysts. The conditions noted are these: ATCC30171, 720 h, read-out: A. culbertsoni 30 day MCC. Here is the method: (§1) The trophozoites of Acanthamoeba were harvested by mechanical detachment and collected via centrifugation at 4000 rpm at 4° C. for 5 minutes. The trophozoites were washed in 10 mL of Neff's Encystment Media (NEM). NEM composition is 20 mM Tris-HCL [pH 8.8] (2.43 g/L), 100 mM KCL (7.46 g/L), 8 mM MgSO4 (962.96 mg/L), 0.4 mM CaCL2 58.81 mg/L) and 1 mM NaHCO3 (84.01 mg/L) (Neff et al. 1964). All reagents were bought from Sigma Aldrich. Centrifugation of the trophozoites was repeated to ensure any residual growth medium was removed. The pellet was resuspended in a final volume of 15 mL of NEM, cultured in 75 cm^2 corning tissue culture flasks and incubated vertically in a thermal shaker, shaken at 100 rpm at 37° C. for 72 hours to produce fully matured cysts. NEM was supplemented with 250 μg of penicillin/streptomycin. Fresh cysts were produced each time for any experimentation.
(§2) At 72 hours the cysts were harvested using a cell scraper and collected via centrifugation at 4000 rpm at 25° C. for 10 minutes. The cells were washed twice in 10 mL of HyClone™ water, Molecular Biology Grade, and centrifugation was repeated to ensure the removal of any residual NEM. The cell suspension was washed with 0.5% sodium dodecyl sulphate (SDS) to remove any remaining trophozoites and immature cysts. The fully mature cysts were further washed twice with 10 mL of HyClone™ water and 1% NEM, centrifugation was repeated to remove any residue of SDS. The concentration of mature cysts was determined using a haemocytometer and adjusted to 1×10^4 cysts/mL in NEM.
(§3) All test compounds were prepared as 5 mg/mL stock solutions in dimethylsulfoxide (DMSO). All compounds were diluted in NEM, serially diluted in 2-fold dilutions 6 or 11 times, yielding a screening concentration range of 1.56 μg/mL to 50 μg/mL or 48 ng/mL to 50 μg/mL with a final highest screening concentration of 1% DMSO.
(§4) Based on this, a strain specific test period and also a 30 day non-specific recovery time were considered. For the 30 day recovery period, the media was changed 5 times to ensure the contents of wells dis not evaporate and have an effect within the results of the assay.
(§5) 90 μL of 1×10^4 Cysts/ml and 10 μL of experimental compounds from the screening plates were produced according to the protocols above and combined into a Corning clear 96 well treated tissue culture plate. Control wells include cysts in non-drug treated, 1% DMSO, NEM (to be used for negative growth control), NEM Blank, PG blank and cysts in non-drug treated, 1% DMSO, PG (to excyst cells and to be used for positive growth control). The total well volume for all wells was 100 μL. The drug exposed plates were screened at 27° C. for 6 or 24 hours only. At the exposure time point the plates were centrifuged at 4000 rpm at 25° C. for 10 minutes and washed twice with phosphate-buffered saline (PBS) to remove any residual experimental compound.
(§6) Once the plate(s) underwent the Encystation drug susceptibility process, all wells except the negative growth control and NEM blank wells received PG growth medium. All plates were left to recover at 27° C. for the strain specific time period of 5, 9 or 11 days depending on the species of Acanthamoeba. At each of the strain specific time points the plates were removed from incubation and microscopically analysed (qualitatively) for the excystation process for the emergence of excysted viable trophozoites or residual cysts. The presence of excysted trophozoites indicated viable amoebae (non-cystistatic or cysticidal—no effect) and the absence of excystation was considered as cystistatic/cysticidal effects.

Assay [2] relates to Acanthamoeba castellanii (ATCC50370) cysts. Briefly: Encystation drug susceptibility / excystation viability assay, 30 day recovery, A. castellanii cysts. The conditions noted are these: ATCC50370, 720 h, read-out: A. castellanii 30 day MCC. Here is the method:
as §1, §2, §3, §4, §5, §6

The test system of assay [3] is Balamuthia mandrillaris trophozoites. Nature of the assay: Activity against Balamuthia mandrillaris trophozoites. The conditions noted are these: Balamuthia mandrillaris, read-out: Balamuthia mandrillaris IC50. Here is the method:
Balamuthia mandrillaris trophozoites were thawed and grown in 10 ml of BM-3 medium. […] After autoclaving, complete BM-3 media was produced by the addition of 10% fetal bovine serum and 125 μg of penicillin/streptomycin antibiotics. The table describes all of the compounds and the activity against Balamuthia trophozoites compared to the activity for select Acanthamoeba trophozoites shown in Table 5.

A further assay relates to A549 cells. Briefly: Toxicity to human A549 cells.
The subject of assay [4] is Acanthamoeba healyi cysts. Briefly: Encystation drug susceptibility / excystation viability assay, 30 day recovery, A. healyi cysts. The conditions noted are these: 720 h, read-out: A. healyi 30 day MCC. Here is the method: as §1, §2, §3, §4, §5, §6
Assay [5] relates to Acanthamoeba castellanii trophozoites. Nature of the assay: Activity against Acanthamoeba castellanii trophozoites. Here is the method: Two Acanthamoeba species (Acanthamoeba castellanii—ATCC50370 and Acanthamoeba culbertsoni—ATCC30171) were bought from the American Type Culture Collection (ATCC) and one species (Acanthamoeba healyi) was donated from the Centers for Disease Control and Prevention (CDC) for our experimentations. Trophozoites were thawed and grown in 10 mL of a nutrient rich Peptose-Glucose (PG) media. The PG media composition is 83.26 mM Glucose (15 g/L), Protease Peptone (15 g/L, yeast extract is manufactured under controlled conditions to retain its vitamin content and other nutritive values such as free amino acids, no other composition information given), 2.2 mM KH2PO4 (300 mg/L), 2.97 μM Thiamine (1 mg/L), 99.86 μM L-methionine (14.9 mg/L), 4.6 μM Vitamin B12 (83.3 μl of 0.1 mg/mL stock/L) and 68 μM Biotin (83.3 μl of 0.2 mg/mL stock/L). […] One mL/L of the salt solution was added to the media stock prior to autoclaving. All reagents were purchased from Sigma Aldrich except the Glucose which was purchased from Alfa Aesar. The cell pellet was resuspended in a final volume of 10 mL of PG media, cultured in 75 cm^2 coming tissue culture flasks and incubated at 27° C. PG was supplemented with 125 μg of penicillin/streptomycin. Sub-culturing occurred twice per week to allow the continued growth and development of the Acanthamoeba trophozoites. […]

[6] abbreviates: minimum cysticidal concentration, no recovery up to 30 days.
The mark [7] stands for this setting: human A549 cells, read-out: A549 cell IC50.
The mark [8] stands for this setting: trophozoites, n = 2, Table 6, read-out: Acanthamoeba castellanii IC50.

Regarding `CC(C)NC(=N)c1ccc2nc(-c3ccc(Oc4ccc(-c5nc6ccc(C(=N)NC(C)C)cc6[nH]5)cc4Br)cc3)[nH]c2c1` [O, 2-(3-Bromo-4-(4-(6-(N-isopropylcarbamimidoyl)-1H-benzo[d]imidazol-2-yl)phenoxy)phenyl)-N-isopropyl-1H-benzo[d]imidazole-6-carboximidamide], the MCC in assay [1] (setting [6]), in assay [2] (setting [6]) and in assay [4] (setting [6]) was 11.4 µM each time. Further, the concentration for half-maximal inhibition (IC50) stood at 0.13 µM in assay [3] (trophozoites, n = 2); 3.71 µM in the assay on A549 cells (setting [7]); 0.67 µM in assay [5] (setting [8]).
As to `CCC(CC)NC(=N)c1ccc2nc(-c3ccc(Oc4ccc(-c5nc6ccc(C(=N)NC(CC)CC)cc6[nH]5)cc4)cc3)[nH]c2c1` [Compound T], the results for the MCC in assay [1] (setting [6]), in assay [2] (setting [6]) and in assay [4] (setting [6]) were 5.71 µM, 11.4 µM and 7.61 µM, respectively. Also, the half-inhibitory concentration (IC50) in assay [3] (trophozoites, n = 2) is 0.14 µM; in the assay on A549 cells (setting [7]) it was 31.4 µM; in assay [5] (setting [8]), 1.13 µM.
In the case of `COc1cc(-c2nc3ccc(C(=N)NC(C)C)cc3[nH]2)ccc1Oc1ccc(-c2nc3ccc(C(=N)NC(C)C)cc3[nH]2)cc1F` [J, 2-(3-Fluoro-4-(4-(6-(N-isopropylcarbamimidoyl)-1H-benzo[d]imidazol-2-yl)-2-methoxyphenoxy)phenyl)-N-isopropyl-1H-benzo[d]imidazole-6-carboximidamide], the MCC worked out at 7.47 µM in assay [1] (setting [6]), 11.2 µM in assay [2] (setting [6]) and 9.34 µM in assay [4] (setting [6]). Further, the IC50 is 0.08 µM in assay [3] (trophozoites, n = 2); 4.03 µM with A549 cells (setting [7]); 0.95 µM in assay [5] (setting [8]).
With `CC(C)NC(=N)c1ccc2nc(-c3ccc(Oc4ccc(-c5nc6ccc(C(=N)NC(C)C)cc6[nH]5)c(F)c4F)cc3Br)[nH]c2c1` [Compound H, 2-(2-Bromo-4-(2,3-difluoro-4-(6-(N-isopropylcarbamimidoyl)-1H-benzo[d]imidazol-2-yl)phenoxy)phenyl)-N-isopropyl-1H-benzo[d]imidazole-6-carboximidamide], the MCC in assay [1], in assay [2] and in assay [4] was 1.88 µM each time. The IC50 in assay [3] came to 0.1 µM; in the assay with A549 cells (Homo sapiens, A549, read-out: A549 cell IC50) it was 3.11 µM; in assay [5] (read-out: A. cactellanii Trophozoite IC50) it was 0.27 µM; in assay [5] (read-out: Acanthamoeba castellanii IC50), 0.27 µM.
For the compound `COc1cc(-c2nc3ccc(C(=N)NC(C)C)cc3[nH]2)ccc1Oc1ccc(-c2nc3ccc(C(=N)NC(C)C)cc3[nH]2)cc1C#N` [Compound U, 2-(3-Cyano-4-(4-(6-(N-isopropylcarbamimidoyl)-1H-benzo[d]imidazol-2-yl)-2-methoxyphenoxy)phenyl)-N-isopropyl-1H-benzo[d]imidazole-6-carboximidamide], the IC50 is 0.15 µM in assay [3] (trophozoites, n = 2) and 1.44 µM in assay [5] (setting [8]).
For `COc1ccc(-c2nc3ccc(-c4nc5ccc(C6=NCCCCN6)cc5[nH]4)cc3[nH]2)cc1O` [AM, 2-methoxy-5-(6-(4,5,6,7-tetrahydro-1H-1,3-diazepin-2-yl)-1H,3′H-[2,5′-bibenzo[d]imidazol]-2′-yl)phenol], in that order: 0.13 µM and 1.93 µM.
For `COc1cc(Oc2ccc(-c3nc4ccc(C(=N)NC(C)C)cc4[nH]3)cc2C#N)ccc1-c1nc2ccc(C(=N)NC(C)C)cc2[nH]1` [Z, 2-(3-Cyano-4-(4-(6-(N-isopropylcarbamimidoyl)-1H-benzo[d]imidazol-2-yl)-3-methoxyphenoxy)phenyl)-N-isopropyl-1H-benzo[d]imidazole-6-carboximidamide], in that order: 0.28 µM and 1.87 µM.
Regarding `CC(C)NC(=N)c1ccc2nc(-c3ccc(Oc4ccc(-c5nc6ccc(C(=N)NC(C)C)cc6[nH]5)c(F)c4)c(Br)c3)[nH]c2c1` [Compound AF, 2-(3-Bromo-4-(3-fluoro-4-(6-(N-isopropylcarbamimidoyl)-1H-benzo[d]imidazol-2-yl)phenoxy)phenyl)-N-isopropyl-1H-benzo[d]imidazole-6-carboximidamide], the half-inhibitory concentration (IC50) was determined as 0.13 µM in assay [3] (trophozoites, n = 2) and 0.75 µM in assay [5] (setting [8]).
With `CC(C)NC(=N)c1ccc2nc(-c3ccc(Oc4ccc(-c5nc6ccc(C(=N)NC(C)C)cc6[nH]5)c(F)c4)c(C#N)c3)[nH]c2c1` [Y, 2-(3-Cyano-4-(3-fluoro-4-(6-(N-isopropylcarbamimidoyl)-1H-benzo[d]imidazol-2-yl)phenoxy)phenyl)-N-isopropyl-1H-benzo[d]imidazole-6-carboximidamide], the half-maximal inhibitory concentration (IC50) in assay [3] (trophozoites, n = 2) turned out to be 0.09 µM; in assay [5] (setting [8]), 0.95 µM.
For `CC(C)NC(=N)c1ccc2nc(-c3ccc(Oc4c(F)cc(-c5nc6ccc(C(=N)NC(C)C)cc6[nH]5)cc4F)cc3)[nH]c2c1` [W, 2-(3,5-Difluoro-4-(4-(6-(N-isopropylcarbamimidoyl)-1H-benzo[d]imidazol-2-yl)phenoxy)phenyl)-N-isopropyl-1H-benzo[d]imidazole-6-carboximidamide], in that order: 0.29 µM and 33.3 µM.
The corresponding values for `CC(C)NC(=N)c1ccc2nc(-c3ccc(Oc4ccc(-c5nc6ccc(C(=N)NC(C)C)cc6[nH]5)cc4C#N)cc3)[nH]c2c1` [V, 2-(3-Cyano-4-(4-(6-(N-isopropylcarbamimidoyl)-1H-benzo[d]imidazol-2-yl)phenoxy)phenyl)-N-isopropyl-1H-benzo[d]imidazole-6-carboximidamide] are 0.07 µM and 1.03 µM.
For `Oc1cccc(-c2nc3ccc(-c4nc5ccc(C6=NCCCCN6)cc5[nH]4)cc3[nH]2)c1` [AO, 3-(6-(4,5,6,7-tetrahydro-1H-1,3-diazepin-2-yl)-1H,3′H-[2,5′-bibenzo[d]imidazol]-2′-yl)phenol], in that order: 0.25 µM and 2.96 µM.

A word on the IC50: it is the concentration that gives 50% inhibition.
